# Article PMC9305971, “Development of [^18F]AmBF3 Tetrazine for Radiolabeling of Peptides: Preclinical Evaluation and PET Imaging of [^18F]AmBF3-PEG7-Tyr^3-Octreotide in an AR42J Pancreatic Carcinoma Model” (Bioconjugate Chemistry, 2022)
# Where two headings read alike, the source gives them in different places.
# Columns and labels:
# Format in all cases: in vivo, Rj:NMRI-Foxn1^nu/nu mice
# [1] = Dosimetry from dynamic PET, extrapolated to adult humans (OLINDA/EXM); details: extrapolated to adult human
# Description: Dosimetry of [^18F]15 was calculated from the acquired PET/CT imaging data with Molecubes PET (β-CUBE) coupled with a CT (X-CUBE) (Ghent, Belgium). Regions of interest were drawn on source organs, namely, the heart, kidneys, liver, and lungs. Time–activity curves (TAC) were converted from mouse to human time −activity curves with the following equation [drawing 1] where morgan,h and WBh are the organ and whole-body weights for human, respectively. Mass morgan,m and WBm are the organ weight and the whole-body weight for mouse, respectively. Time–activity curves were normalized to 1 MBq injection, and the physical decay correction was removed. After this, the TAC’s were extrapolated into 3000 min, which corresponds in practice to infinity. Numbers of disintegrations in source organs are defined by integrating TAC from time 0 to 3000 min, and this value is input for OLINDA/EXM (version 2.1, Vanderbilt University, 2012) dosimetry software, where ICRP 89 reference adult male (73 kg) and ICRP 103 radiation weighting factors were used. Absorbed doses to each target organ are given in units mGy/MBq, and the effective dose is in units mSv/MBq.
# Table S3. Dosimetry calculations.
# Results after intravenous administration of [18F]15 from OLINDA/EXM (Version 2.1, Vanderbilt University, 2012), where ICRP 89 reference adult male (73 kg) and ICRP 103 radiation weighting factors were used. Absorbed doses to each target organ is given in units mGy/MBq and the effective dose in units mSv/MBq. The difference in radiation burden based on baseline (non-block) and blocked mice is negligible.
# Target organ Baseline Avg. Baseline Std. Blocked Avg. Blocked Std. […]
# [2] = PET/CT imaging of [18F]15; details: Rj:NMRI-Foxn1^nu/nu, mouse, subcutaneous AR42J tumor, iv, 0.2 nmol, total radioactivity; for SUV at 25 min: 25 min post injection; for SUV at 1.5 h: 90 min post injection
# Description: (§1) [^18F]6 in 10% ethanol–0.01 M PBS was administered intravenously to male Fox Chase SCID mice (CB.17 SCID) (11.0 ± 0.5 MBq, ∼11 nmol, ∼150 μL, n = 4) and healthy female C57BL/6JRj mice (11.3 ± 0.3 MBq, ∼11 nmol, ∼150 μL, n = 4) under 2% isoflurane anesthesia. The PET/CT image was acquired with Inveon PET/CT for 60 min followed by a 15 min static scan 4 h after injection of the tracer. The images of the dynamic scan were reconstructed to time frames 60 × 10, 10 × 60, 4 × 300, and 3 × 600 s. After the second PET imaging (t = 270 ± 1.9 min post injection, n = 4), the organs were harvested and the radioactivity in each tissue sample was measured with a γ-counter and reported as a percentage of injected dose per gram of tissue (% ID/g). [^18F]15 was formulated in 4% ethanol in 0.01 M PBS and administered intravenously (0.2 nmol, 0.80 ± 0.30 MBq; tracer: 150 μL; tracer + blocking dose: 200 μL) to AR42J tumor-bearing Rj:NMRI-Foxn1^nu/nu mice (n = 4) under 2% isoflurane anesthesia. PET/CT images were acquired with Molecubes PET (β-CUBE) coupled with a CT (X-CUBE) (MOLECUBES NV, Ghent, Belgium) with two mice being imaged at the same time under 2% isoflurane anesthesia. Images were reconstructed to time frames 30 × 10, 15 × 60, 4 × 300, and 5 × 600 s. Quantitative image analysis was done with Carimas software (v 2.10, Turku PET Centre, Turku, Finland). Spherical ROIs were hand-drawn based on anatomical CT data and PET signal for the desired organs. The results are presented as standardized uptake values (SUVs).
# (§2) The standardized uptake values (SUVs) were determined from the PET image by drawing regions-of-interest (ROI) around selected organs (heart, liver, kidney, lung, muscle, urinary bladder) with Carimas software (version 2.10, Turku PET Centre, Turku, Finland ) and by measuring the ratio of radioactivity per unit volume of that ROI and normalized to the injected […]
# dose. […]
# subcutaneous AR42J tumor = experiment: PET/CT imaging of [18F]15; details: i.v., 0.2 nmol
# Description: as §1, §2
# dose. […]
structure (smiles),measurement,setting,value
C[C@@H](O)[C@@H]1NC(=O)[C@H](CCCCN)NC(=O)[C@@H](Cc2c[nH]c3ccccc23)NC(=O)[C@H](Cc2ccc(O)cc2)NC(=O)[C@@H](NC(=O)[C@@H](Cc2ccccc2)NC(=O)CCOCCOCCOCCOCCON=Cc2ccc(C(=O)NCCOCCOCCOCCNC(=O)OC3CCCc4cnnc(-c5ccc(CC(=O)NCC[N+](C)(C)C[B-](F)(F)F)cc5)c4CC3)cc2)CSSC[C@@H](C(=O)N[C@H](CO)[C@@H](C)O)NC1=O (stereo partly shown) [[^18F]15],"absorbed dose, adrenals",[1]; baseline,0.0190 ± 0.0008 mGy/MBq
same,"absorbed dose, brain",[1]; baseline,0.0102 mGy/MBq
same,"absorbed dose, esophagus",[1]; baseline,0.0129 mGy/MBq
same,"absorbed dose, eyes",[1]; baseline,0.0102 mGy/MBq
same,"absorbed dose, gallbladder wall",[1]; baseline,0.0194 ± 0.0011 mGy/MBq
same,"absorbed dose, heart wall",[1]; baseline,0.0148 mGy/MBq
same,"absorbed dose, kidneys",[1]; baseline,0.0366 ± 0.0016 mGy/MBq
same,"absorbed dose, left colon",[1]; baseline,0.0143 mGy/MBq
same,"absorbed dose, lungs",[1]; baseline,0.0109 mGy/MBq
same,"absorbed dose, osteogenic cells",[1]; baseline,0.0120 mGy/MBq
same,"absorbed dose, pancreas",[1]; baseline,0.0156 ± 0.0002 mGy/MBq
same,"absorbed dose, prostate",[1]; baseline,0.0135 mGy/MBq
same,"absorbed dose, rectum",[1]; baseline,0.0136 mGy/MBq
same,"absorbed dose, red marrow",[1]; baseline,0.0113 mGy/MBq
same,"absorbed dose, right colon",[1]; baseline,0.0151 mGy/MBq
same,"absorbed dose, salivary glands",[1]; baseline,0.0118 mGy/MBq
same,"absorbed dose, small intestine",[1]; baseline,0.0144 mGy/MBq
same,"absorbed dose, spleen",[1]; baseline,0.0137 mGy/MBq
same,"absorbed dose, stomach wall",[1]; baseline,0.0141 mGy/MBq
same,"absorbed dose, testes",[1]; baseline,0.0112 mGy/MBq
same,"absorbed dose, thymus",[1]; baseline,0.0122 mGy/MBq
same,"absorbed dose, thyroid",[1]; baseline,0.0118 mGy/MBq
same,"absorbed dose, total body",[1]; baseline,0.0121 mGy/MBq
same,"absorbed dose, urinary bladder wall",[1]; baseline,0.0134 ± 0.0003 mGy/MBq
same,effective dose,[1]; baseline,0.0112 mSv/MBq
same,"absorbed dose, adrenals","[1]; baseline, listed as [18F]15",0.0190 mGy/MBq
same,"absorbed dose, gallbladder wall","[1]; baseline, listed as [18F]15",0.0194 mGy/MBq
same,"absorbed dose, kidneys","[1]; baseline, listed as [18F]15",0.0366 mGy/MBq
same,"absorbed dose, liver","[1]; baseline, listed as [18F]15",0.0334 mGy/MBq
same,"absorbed dose, pancreas","[1]; baseline, listed as [18F]15",0.0156 mGy/MBq
same,"absorbed dose, urinary bladder wall","[1]; baseline, listed as [18F]15",0.0134 mGy/MBq
same,"absorbed dose, adrenals",[1]; blocked,0.0185 ± 0.0001 mGy/MBq
same,"absorbed dose, brain",[1]; blocked,0.0103 mGy/MBq
same,"absorbed dose, esophagus",[1]; blocked,0.0129 mGy/MBq
same,"absorbed dose, eyes",[1]; blocked,0.0103 mGy/MBq
same,"absorbed dose, gallbladder wall",[1]; blocked,0.0190 ± 0.0011 mGy/MBq
same,"absorbed dose, heart wall",[1]; blocked,0.0150 mGy/MBq
same,"absorbed dose, kidneys",[1]; blocked,0.0337 ± 0.0043 mGy/MBq
same,"absorbed dose, left colon",[1]; blocked,0.0144 mGy/MBq
same,"absorbed dose, liver",[1]; blocked,0.0313 ± 0.0040 mGy/MBq
same,"absorbed dose, lungs",[1]; blocked,0.0106 mGy/MBq
same,"absorbed dose, osteogenic cells",[1]; blocked,0.0121 mGy/MBq
same,"absorbed dose, pancreas",[1]; blocked,0.0154 ± 0.0001 mGy/MBq
same,"absorbed dose, prostate",[1]; blocked,0.0136 mGy/MBq
same,"absorbed dose, rectum",[1]; blocked,0.0137 mGy/MBq
same,"absorbed dose, red marrow",[1]; blocked,0.0114 mGy/MBq
same,"absorbed dose, right colon",[1]; blocked,0.0150 mGy/MBq
same,"absorbed dose, salivary glands",[1]; blocked,0.0119 mGy/MBq
same,"absorbed dose, small intestine",[1]; blocked,0.0145 mGy/MBq
same,"absorbed dose, spleen",[1]; blocked,0.0136 mGy/MBq
same,"absorbed dose, stomach wall",[1]; blocked,0.0141 mGy/MBq
same,"absorbed dose, testes",[1]; blocked,0.0113 mGy/MBq
same,"absorbed dose, thymus",[1]; blocked,0.0122 mGy/MBq
same,"absorbed dose, thyroid",[1]; blocked,0.0119 mGy/MBq
same,"absorbed dose, total body",[1]; blocked,0.0121 mGy/MBq
same,"absorbed dose, urinary bladder wall",[1]; blocked,0.0135 ± 0.0000 mGy/MBq
same,effective dose,[1]; blocked,0.011 mSv/MBq
same,"absorbed dose, adrenals","[1]; blocked, listed as [18F]15",0.0185 mGy/MBq
same,"absorbed dose, gallbladder wall","[1]; blocked, listed as [18F]15",0.0190 mGy/MBq
same,"absorbed dose, kidneys","[1]; blocked, listed as [18F]15",0.0337 mGy/MBq
same,"absorbed dose, liver","[1]; blocked, listed as [18F]15",0.0313 mGy/MBq
same,"absorbed dose, pancreas","[1]; blocked, listed as [18F]15",0.0154 mGy/MBq
same,"absorbed dose, urinary bladder wall","[1]; blocked, listed as [18F]15",0.0135 mGy/MBq
same,"absorbed dose, all organs",[1],below 0.04 mGy/MBq
same,"absorbed dose, all other organs apart from the kidneys and liver",[1],≤ 0.02 mGy/MBq
same,SUV at 25 min,"[2]; coadministration of octreotide, read-out: tumor SUV, blocked",0.76 ± 0.04 SUV
same,SUV at 25 min,"[2]; read-out: tumor SUV, baseline",1.01 ± 0.07 SUV
same,SUV at 1.5 h,"[2]; n = 2, coadministration of octreotide, read-out: tumor SUV, blocking",0.76 ± 0.03 SUV
same,SUV at 1.5 h,"[2]; n = 2, read-out: tumor SUV, baseline",0.82 ± 0.14 SUV
same,time of peak radioactivity in tumor (TAC),subcutaneous AR42J tumor,20 to 30 min
